Consider 14 molecules from patent US10494402B2, “Peptides that stimulate subcutaneous adipogenesis” (The Regents of the University of California, priority 2012, dated 2019).

Assay [1] deals with rat mesenchymal stem cells. The experiment in a line: Adipogenesis Assay 1 (IBMX/dexamethasone priming, peptide replaces insulin; Oil Red O or BODIPY). The class given is cell-based. Particulars: for adipogenic activity, Oil Red O, fold change relative to negative control / Fold adipogenic induction vs. negative control / Specific activity (activity/1000 daltons): Assay 1; for adipogenic activity, Oil Red O, fold change relative to negative control: 0.5, 5, and 50 μg/ml over 3 weeks; for adipogenic activity of truncation fragments: truncation experiments, assays 1 and 2, FIGS. 7, 8, 9. On the procedure:
Reagents: (1) 3-isobutyl-1-methylxanthine (IBMX) solution: 0.5M in DMSO; (2) Insulin solution: 10 mg/mL recombinant human insulin; (3) Dexamethasone solution in 10 mM in ethanol; (4) Oil Red O (0.36% in 60% isopropanol) or BODIPY dye (BODIPY 493/503 (4,4-difluoro-1,3,5,7-tetramethyl-4-bora-3a,4a-diaza-s-indacene-8-propionic acid, succinimidyl ester) from Invitrogen at 4-10 μM).
Adipogenesis Initiation Media: mesenchymal stem cell expansion media/0.5 mM IBMX/1 μM dexamethasone. Mesenchymal stem cell expansion media is commercially available from Millipore. The IBMX Solution was diluted 1:1000 and the Dexamethasone Solution was diluted 1:10,000 in expansion media containing antibiotics and antimycotics. The prepared media was stored at 4° C.
Adipogenesis Progression Media for positive control: mesenchymal stem cell expansion media/10 μg/mL insulin. The Insulin Solution was diluted 1:1000 in the expansion media and stored at 4° C.
Experimental Adipogenesis Progression Media: mesenchymal stem cell expansion media/1-100 μg/mL RHAMM antagonist peptides.
Adipogenesis Maintenance Media: mesenchymal stem cell expansion media containing antibiotics and antimycotics.
Negative Control Media: DMEM/10% normal calf serum.
Pre-adipocyte stem cells including bone marrow mesenchymal stem cells and fibroblasts including reticular and papillary dermal fibroblasts were propagated using standard tissue culture methods. Cells were trypsinized to remove the cells from the substratum. The trypsin was neutralized and cells were counted using a hemocytometer. Cells were resuspended at 30,000 cells/mL in expansion media. […] of cell suspension was plated per well of 24-well plate, with several wells left empty for blank well staining.
Cells were incubated for 1-2 days until they reached confluency. Approximately 1.8 mL of media was removed from each well and replaced with 2 mL Adipogenesis Initiation Media. For negative control wells, expansion media only was used at this step and for subsequent media changes. For all media changes, media was replaced as gently as possible to avoid disturbing the monolayer.
Cells were incubated for 48 hours at 37° C., 5% CO2. 2 mL media was removed from each well, and replaced with 2 mL either positive control or experimental Adipogenesis Progression Media per well. Cells were again incubated for 48 hours at 37° C., 5% CO2. 2 mL of media was removed from each well and replaced with 2 mL Adipogenesis Maintenance Media per well. In addition, media was added to the empty wells reserved for blank well staining Cells were incubated for at least 48 hours at 37° C., 5% CO2. Media was replaced every 48-72 hours. Accumulation of intracellular lipid droplets continued for at least 5 days.
For quantification of Oil Red O staining, media was removed and cells were washed twice with PBS, using care to gently add the PBS. 0.5 mL Oil Red O solution was added per well of 24-well plate, including to the wells lacking cells, but containing media. Cells were incubated for 15 minutes at room temperature. The staining solution was then removed and wells were washed three times with 1 mL of phosphate buffered saline (PBS). In some experiments, following removal of the last wash, stained plates were scanned or photographed.
Adipogenesis was quantified using a spectrophotometer or fluorometer. 0.25 mL Dye Extraction Solution (isopropyl alcohol) was added per well, and the plate was set on an orbital shaker or platform rocker for 15-30 minutes. Extracted dye was transferred into a cuvette and absorbance was read in a spectrophotometer at visible range for oil red 0 or transferred to a 96-well plate and quantified in a plate reader.
For quantification of BODIPY dye uptake, media was removed and cells were washed twice with PBS, using care to gently add the PBS. Cells were then fixed in 3% paraformaldehyde, washed in PBS then incubated for 1 hour in the dark with the BODIPY solution, prepared in PBS. […]

Assay [2] concerns rat mesenchymal stem cells. Nature of the assay: Adipogenesis Assay 2 (dexamethasone/insulin/indomethacin induction, then peptide; Oil Red O or BODIPY). The assay is classed as cell-based. Particulars: for adipogenic activity of pentamers / adipogenic activity relative to KSEVSK hexamer: FIG. 35, groups labelled A2-, doses 1, 5, 25 μg, absorbance at 520 nm; for Fold adipogenic induction vs. negative control / Specific activity (activity/1000 daltons) / adipogenic activity, Oil Red O, fold change relative to negative control: Assay 2; for adipogenic activity, Oil Red O, fold change relative to negative control: 0.5, 5, and 50 μg/ml over 3 weeks. On the procedure: Reagents: The dexamethasone, insulin, and Oil Red O solutions were the same as described above for assay 1. Indomethacin Solution contained 10 mM indomethacin in methanol. The BODIPY 493/503 dye was used at a concentration of 4 μM.
Adipogenesis Maintenance Media was prepared as described above.
Adipogenesis Induction Media: To prepare 501 mL of Adipogenesis Induction Media, 50 μL of the 10 mM stock solution of dexamethasone, 500 μL of the 10 mg/ml stock solution of insulin, 5 ml of a 10 mM stock solution of indomethacin, and 5 mL of a 100× stock solution of penicillin and streptomycin were added to 490 mL of mesenchymal stem cell expansion media.
Pre-adipocyte stem cells, bone marrow mesenchymal stem cells and fibroblasts such as dermal reticular and papillary fibroblasts were propagated using standard tissue culture methods. Cells were trypsinized to remove cells from the substratum, the trypsin was neutralized, and cells were counted using a hemocytometer. Cells were resuspended at 60,000 cells/ml in low glucose DMEM containing 10% calf serum. 1 mL of cell suspension per well was plated in a 24-well plate, with several wells left empty for blank well staining.
Cells were incubated overnight and had reached confluency at this point. Approximately 1.8 ml of media was removed from each well and replaced with 2 ml Adipogenesis Induction Media. For negative control wells, expansion medium only was used at this step and for subsequent media changes. For all media changes, media was replaced as gently as possible to avoid disturbing the monolayer.
Media was removed and replaced with 2 ml of maintenance medium containing either RHAMM antagonist peptides (experimental group) or insulin (concentration as in the induction medium used as positive control). […]
Media was removed and BODIPY or Oil Red O staining was performed as described above for assay 1.
As described above in Example 1, two different adipogenesis assays were used herein to assess the adipogenic effects of the peptides in rat mesenchymal stem cells. Assay 1 is an assay that is typically used to promote transdifferentiation of fibroblasts into adipocytes, whereas Assay 2 is typically used to promote differentiation of multi-potential mesenchymal progenitor cells into adipocytes. Immortalized rat bone marrow mesenchymal stem cells were used for both assays. These cells contain cells of different lineages, including fibroblasts, pre-adipocytes, pre-chondrocytes and pre-osteoblasts. Thus, Assay 1 was used to promote transdifferentiation of the fibroblast lineages into adipocytes and Assay 2 was used to promote differentiation of the pre-adipocytes into adipocytes.
As described in Example 1 above, the priming stimulus for Assay 1 includes IBMX (3-isobutyl-1-methylxanthine) and dexamethasone, and then insulin as the final adipogenic stimulus. The priming stimulus for assay 2 includes IBMX, dexamethasone and indomethacin, and then insulin as the final adipogenic stimulus.

Assay [3] deals with 2D human Pre-adipocytes. The experiment in a line: Adipogenic potential ranking in 2D tissue culture, human pre-adipocytes. The assay is classed as cell-based. Particulars: scale of 0-5, 5 highest. On the procedure:
(§1) Examples of the adipogenic effects of RHAMM antagonists (peptide B (SEQ ID NO: 2), peptide P15-1 (SEQ ID NO. 1), and the antibody to peptide B) are summarized in Table 1. Peptide P15-1, peptide B, and a RHAMM antibody were assayed for their effects on pre-adipocyte stem cells in culture and when injected into the dermis of aged rats. Reagents were ranked on a scale of 0-5 with 5 representing the highest possible score and a completely filled in Harvey ball. “2D” refers to two-dimensional tissue culture.

Assay [4] has as its system Rat skin. Nature of the assay: Rat dermal skin model of adipogenesis (injection into dermis). The assay is classed as in vivo. To be noted: injected into the dermis of aged rats; scale of 0-5, 5 highest. Here is the method: as §1
In FIGS. 5A and 5B, data are shown as a ratio of the area (“surface area”) of fat pads expressed as a ratio of experimental/control values.
The 6-mer (KSEVSK; SEQ ID NO: 3) was tested for adipogenic effect in rat skin in vivo. The results of this testing are shown in the photographs in FIG. 10.

The subject of assay [5] is 2D rat Pre-adipocytes (rat mesenchymal stem cells). Nature of the assay: Adipogenic potential ranking in 2D tissue culture, rat pre-adipocytes. The class given is cell-based. To be noted: ranked on a scale of 0-5 with 5 representing the highest possible score. On the procedure:
as §1

In assay [6] the test system is mesenchymal stem cells or papillary fibroblasts. The experiment in a line: Adipogenesis by RHAMM antagonists in tissue culture and in vivo (summary statements). The source says:
We hypothesized that the fragment and the antibody were blocking RHAMM function by competitive inhibition and by direct binding/blocking of RHAMM, respectively. Using truncation analyses, the size of the peptide was further reduced to 32 amino acids ([…] (SEQ ID NO: 92)) and it was shown that adipogenic activity is localized to a 15 amino acid peptide (KLKDENSQLKSEVSK (SEQ ID NO: 2); “peptide B” or “B-1” herein) shown in FIG. 2. This peptide was chemically synthesized to use as a competitive blocker, and antibodies were prepared against this sequence tagged with keyhold lymphocyte hemacyanin (KLH) to directly bind/block RHAMM function.
The RHAMM sequence that contains adipogenic activity also contains the hyaluronan binding region of this protein.
All of these reagents can replace insulin in their ability to promote adipogenesis in mesenchymal stem cells or papillary fibroblasts.

In assay [7] the test system is mesenchymal stem cell. The experiment in a line: Adipogenesis with commercially available mesenchymal stem cell kit. The class given is cell-based. On the procedure: Ablation of RHAMM expression promotes adipogenesis (Tolg et al., 2006, J Cell Biol). A RHAMM carboxy-terminal sequence [^AA681LDAFEAEKQA LLNEHGATQEQLNKIRDSYAQLLGHQNLKQKIKHVVKLKDENSQLKSEVSKLRSQLVKRKQNELRLQGELDKALGIRHFDPSKAFCHASKENFTPLKEGNPNCC^aa794 (SEQ ID NO: 91)] was produced as a recombinant protein, and antibodies were prepared to this protein fragment.

For ASEVSA, the “adipogenic activity, Oil Red O, fold change relative to negative control” value in assay [1] was “significantly increased adipogenic activity as compared to both the negative control and the KSEVSK 6-mer”.

In the case of “KLKDENS [fragment corresponding to one half of peptide B]”, the “adipogenic activity of truncation fragments” value in assay [1] is on record as “Only the SQLKSEVSK (SEQ ID NO: 44) fragment was found to be adipogenic”.

KSEVS: in assay [2], the “adipogenic activity of pentamers” value is “low level of adipogenic activity” and the “adipogenic activity relative to KSEVSK hexamer” value is on record as “much less active than the KSEVSK (SEQ ID NO: 3) hexamer”.

On to LKSEVSK, for which, in assay [2], the “Fold adipogenic induction vs. negative control” value came out at 3 and the “Specific activity (activity/1000 daltons)” value (“Specific activity” for short) was 3.39 activity/1000 daltons. In assay [1], the “Fold adipogenic induction vs. negative control” value was determined as 2, the “Specific activity” value is given as 2.26 activity/1000 daltons and the “adipogenic activity of truncation fragments” value is “also found to be adipogenic”.

LSELEK: the “adipogenic activity, Oil Red O, fold change relative to negative control” value in assay [2] is recorded as “increased adipogenesis”.

As to SEVSK, in assay [2], the “adipogenic activity of pentamers” value was “low level of adipogenic activity” and the “adipogenic activity relative to KSEVSK hexamer” value is recorded as “much less active than the KSEVSK (SEQ ID NO: 3) hexamer”.

SIMMSR: the “adipogenic activity, Oil Red O, fold change relative to negative control” value in assay [2] and in assay [1] was “weakly adipogenic” each time.

On to SQLKSEVSK, for which, in assay [2], the “Fold adipogenic induction vs. negative control” value is listed as 3.0 and the “Specific activity” value is reported as 2.64 activity/1000 daltons. In assay [1], the “Fold adipogenic induction vs. negative control” value worked out at 2.4, the “Specific activity” value is 2.11 activity/1000 daltons and the “adipogenic activity of truncation fragments” value is on record as “found to be adipogenic”.

As to STMMRSH, the “adipogenic activity, Oil Red O, fold change relative to negative control” value is given as “active at the 0.5 μg/ml concentration” in assay [2] and “significantly greater adipogenic activity than the negative control” in assay [1].

In the case of STMMSRSHK, the “adipogenic activity of truncation fragments” value in assay [1] is on record as “has adipogenic activity”.

Regarding “STMMSRSHKTRSHHV [peptide P15-1, reference compound]”, in assay [3], the “adipogenic potential, 2D human Pre-adipocytes” value turned out to be 2. For the same molecule, in assay [4], the “adipogenic potential, In vivo Rat skin” value is 2. Besides, in assay [5], the “adipogenic potential, 2D rat Pre-adipocytes (rat mesenchymal stem cells)” value is reported as 2. Besides, the “adipogenesis in tissue culture and in vivo” value in assay [6] was “promotes adipogenesis in tissue culture and in vivo”.

For the molecule STRMSR, the “adipogenic activity, Oil Red O, fold change relative to negative control” value in assay [2] and in assay [1] was “weakly adipogenic” throughout.

On to STTMSR, for which the “adipogenic activity, Oil Red O, fold change relative to negative control” value in assay [2] and in assay [1] was “weakly adipogenic” throughout.

B1: SEQ ID NO: 91: RHAMM carboxy-terminal sequence (aa681-aa794) produced as a recombinant protein (protein)
chain: LDAFEAEKQALLNEHGATQEQLNKIRDSYAQLLGHQNLKQKIKHVVKLKDENSQLKSEVSKLRSQLVKRKQNELRLQGELDKALGIRHFDPSKAFCHASKENFTPLKEGNPNCC
Turning to B1, in assay [7], the adipogenesis entry is “promoted adipogenesis”.
